Assay results from ChEMBL document CHEMBL1201862, “PubChem BioAssay data set” (2004).
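Cultured in 96-well plates, cells were exposed to test compound for 48 hours across five concentrations. At the GI50, growth is halved.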 Calls of active or inactive are those of the source. No stated cut-off is given here; in the data, active = GI50 up to about 1.1 µM and inactive = higher.

Legend:
Assay in all cases: NCI-60 cell line screen, 48 h
OVCAR-8 = tested on: OVCAR-8
DU-145 = tested on: DU-145
T47D = tested on: T47D
PC-3 = tested on: PC-3
LOX IMVI = tested on: LOX IMVI
NCI/ADR-RES = tested on: NCI/ADR-RES
HOP-62 = tested on: HOP-62
Malme-3M = tested on: Malme-3M
Hs-578T = tested on: Hs-578T
HL-60 = tested on: HL-60
RXF 393 = tested on: RXF 393
SN12C = tested on: SN12C
XF498 = tested on: XF498
DMS-273 = tested on: DMS-273
786-0 = tested on: 786-0
KM-20L2 = tested on: KM-20L2
M19-MEL = tested on: M19-MEL
SNB-78 = tested on: SNB-78
HCT-116 = tested on: HCT-116
DLD-1 = tested on: DLD-1

Compound	GI50 (OVCAR-8)	GI50 (DU-145)	GI50 (T47D)	GI50 (PC-3)	GI50 (LOX IMVI)	GI50 (NCI/ADR-RES)	GI50 (HOP-62)	GI50 (Malme-3M)	GI50 (Hs-578T)	GI50 (HL-60)	GI50 (RXF 393)	GI50 (SN12C)	GI50 (XF498)	GI50 (DMS-273)	GI50 (786-0)	GI50 (KM-20L2)	GI50 (M19-MEL)	GI50 (SNB-78)	GI50 (HCT-116)	GI50 (DLD-1)
C[C@]12CC[C@@H]3c4ccc(O)cc4CC[C@H]3[C@@H]1C/C(=C\c1ccncc1)C2=O	18.5 µM (inactive)	12.1 µM (inactive)	27.2 µM (inactive)	11.6 µM (inactive)	20.7 µM (inactive)	17.5 µM (inactive)	20.3 µM (inactive)	14.1 µM (inactive)	14.2 µM (inactive)	10.6 µM (inactive)	20.4 µM (inactive)									
CCCCCCCCC(O)c1ccc(/C=C\C(O)CCCC(=O)O)s1 (stereo unspecified)	> 100 µM (inactive)				> 100 µM (inactive)			> 100 µM (inactive)		> 100 µM (inactive)	> 100 µM (inactive)	> 100 µM (inactive)	> 100 µM (inactive)	> 100 µM (inactive)	> 100 µM (inactive)	> 100 µM (inactive)	> 100 µM (inactive)	> 100 µM (inactive)	> 100 µM (inactive)	> 100 µM (inactive)
C=C1c2c(cc3c(c2O)c(=O)c2ccccc2n3C)OC1(C)C	52.6 µM (inactive)				> 100 µM (inactive)			> 100 µM (inactive)		> 100 µM (inactive)		> 100 µM (inactive)	28.6 µM (inactive)	> 100 µM (inactive)		8.71 µM (inactive)	> 100 µM (inactive)	37.2 µM (inactive)		> 100 µM (inactive)
COc1cc(C2C(C(=O)O)=C(COC(C)=O)Oc3cc4c(cc32)OCO4)cc(OC)c1OC (stereo unspecified)	> 100 µM (inactive)				> 100 µM (inactive)		> 100 µM (inactive)	> 100 µM (inactive)		> 100 µM (inactive)	> 100 µM (inactive)	> 100 µM (inactive)	> 100 µM (inactive)	> 100 µM (inactive)		> 100 µM (inactive)	> 100 µM (inactive)	> 100 µM (inactive)	> 100 µM (inactive)	
O=[N+]([O-])c1cccc2nc3ccccc3c(NCCNCCO)c12	0.00733 µM (active)	0.00288 µM (active)	0.00819 µM (active)	0.00245 µM (active)	0.00413 µM (active)	0.248 µM (active)	0.0169 µM (active)	0.00877 µM (active)	0.0251 µM (active)	0.0177 µM (active)	0.00513 µM (active)	0.0122 µM (active)			0.00348 µM (active)				0.0197 µM (active)	
O=C1CC(=O)c2c(O)cc(O)c(c2O)-c2c(ccc(O)c2O)C2=CC(=O)c3c(O)cc(O)c(c3O2)-c2c1ccc(O)c2O.O=C1CC2(O)Oc3c1c(O)cc(O)c3-c1c(ccc(O)c1O)-c1cc(=O)c3c(O)cc(O)c(c3o1)-c1c2ccc(O)c1O	> 50 µM (inactive)	> 50 µM (inactive)	> 50 µM (inactive)	> 50 µM (inactive)	> 50 µM (inactive)	> 50 µM (inactive)	> 50 µM (inactive)	> 50 µM (inactive)	> 50 µM (inactive)	> 50 µM (inactive)	> 50 µM (inactive)	> 50 µM (inactive)							> 50 µM (inactive)	
Cc1cc2c(cc1C)N1Cc3c(ccc(C)c3C)N(C2)C1.Cc1cc2c(cc1C)N1Cc3cc(C)c(C)cc3N(C2)C1	> 100 µM (inactive)				86.7 µM (inactive)		74.5 µM (inactive)			35.2 µM (inactive)	35.6 µM (inactive)	10 µM (inactive)	> 100 µM (inactive)	> 100 µM (inactive)	> 100 µM (inactive)	52 µM (inactive)	> 100 µM (inactive)	> 100 µM (inactive)	> 100 µM (inactive)	> 100 µM (inactive)
O=NN1CCN=C1c1ccc([N+](=O)[O-])cc1	> 100 µM (inactive)				> 100 µM (inactive)		> 100 µM (inactive)	> 100 µM (inactive)		> 100 µM (inactive)	> 100 µM (inactive)	> 100 µM (inactive)	> 100 µM (inactive)	> 100 µM (inactive)	> 100 µM (inactive)	> 100 µM (inactive)	> 100 µM (inactive)	> 100 µM (inactive)	> 100 µM (inactive)	> 100 µM (inactive)
CC(=O)O[C@@H]1[C@H]2[C@@H](OC(=O)c3ccccc3)[C@@H](C)C[C@]2(O)[C@H](OC(C)=O)[C@@]2(C)[C@@H]3C[C@@](C)(OC(C)=O)C[C@@H](OC(C)=O)[C@@]3(OC(C)=O)C[C@@]12C	> 10 µM (inactive)	> 10 µM (inactive)	> 10 µM (inactive)	> 10 µM (inactive)	> 10 µM (inactive)	> 10 µM (inactive)	> 10 µM (inactive)		> 10 µM (inactive)	> 10 µM (inactive)	> 10 µM (inactive)	> 10 µM (inactive)			> 10 µM (inactive)				> 10 µM (inactive)	
Fc1ccccc1C1CC(C(c2ccccc2)c2ccccc2)=Nc2ccccc2S1 (stereo unspecified)	7.71 µM (inactive)				5.78 µM (inactive)		12.6 µM (inactive)	16 µM (inactive)		2.55 µM (inactive)	4.63 µM (inactive)	10.2 µM (inactive)	13.7 µM (inactive)	4.76 µM (inactive)	4.23 µM (inactive)	6.53 µM (inactive)				5.41 µM (inactive)
O=C1CCCC(=O)N1CCc1c[nH]c2ccccc12	> 100 µM (inactive)						> 100 µM (inactive)	> 100 µM (inactive)		> 100 µM (inactive)	> 100 µM (inactive)	> 100 µM (inactive)	> 100 µM (inactive)	> 100 µM (inactive)	> 100 µM (inactive)	> 100 µM (inactive)	> 100 µM (inactive)	> 100 µM (inactive)	> 100 µM (inactive)	> 100 µM (inactive)
CC(NC(=O)C(C)NC(=O)C(N)CCP(C)(=O)O)C(=O)O (stereo unspecified)	> 100 µM (inactive)				> 100 µM (inactive)	> 100 µM (inactive)	> 100 µM (inactive)	> 100 µM (inactive)		> 100 µM (inactive)	> 100 µM (inactive)	> 100 µM (inactive)	> 100 µM (inactive)	> 100 µM (inactive)		> 100 µM (inactive)	> 100 µM (inactive)	> 100 µM (inactive)	> 100 µM (inactive)	> 100 µM (inactive)
Cc1cc(NC(=S)SCc2ccc(F)cc2)c([N+](=O)[O-])cc1C	19 µM (inactive)	32.2 µM (inactive)	48.8 µM (inactive)	42.2 µM (inactive)		25.8 µM (inactive)	24.7 µM (inactive)	25.6 µM (inactive)	13.4 µM (inactive)	16.9 µM (inactive)	22.9 µM (inactive)	19.4 µM (inactive)			33.3 µM (inactive)				26.2 µM (inactive)	
COc1ccc(/C=C2\CCNC2=O)cc1	> 100 µM (inactive)				> 100 µM (inactive)	> 100 µM (inactive)	40.6 µM (inactive)	> 100 µM (inactive)		> 100 µM (inactive)		> 100 µM (inactive)	> 100 µM (inactive)	> 100 µM (inactive)		> 100 µM (inactive)	> 100 µM (inactive)	> 100 µM (inactive)	> 100 µM (inactive)	> 100 µM (inactive)
COc1ccc(C2C(=O)c3ccc(OC)cc3OC2c2cccnc2)cc1 (stereo unspecified)	56 µM (inactive)	> 100 µM (inactive)	> 100 µM (inactive)	> 100 µM (inactive)	> 100 µM (inactive)	> 100 µM (inactive)	33.2 µM (inactive)	> 100 µM (inactive)	45.1 µM (inactive)	> 100 µM (inactive)	86.3 µM (inactive)	> 100 µM (inactive)			83.2 µM (inactive)				> 100 µM (inactive)	
COC(=O)[C@@H]1O[C@]12[C@@H](CO[Si](C)(C)C(C)(C)C)O[C@@H](n1cc(C)c(=O)[nH]c1=O)[C@@H]2O[Si](C)(C)C(C)(C)C	15.3 µM (inactive)	18.2 µM (inactive)	6.31 µM (inactive)	20.4 µM (inactive)	3.38 µM (inactive)	13.6 µM (inactive)	26.2 µM (inactive)	21.6 µM (inactive)	19.1 µM (inactive)	3.12 µM (inactive)	7.35 µM (inactive)	13.8 µM (inactive)							15.2 µM (inactive)	
COc1ccc2c3c1OC1C(F)C=CC4(O)C(C2)NCCC314 (stereo unspecified)	1.94 µM (inactive)	2.82 µM (inactive)	0.753 µM (active)	2.07 µM (inactive)	2.31 µM (inactive)	3.94 µM (inactive)	2.11 µM (inactive)	1.97 µM (inactive)	2.62 µM (inactive)		1.62 µM (inactive)	1.98 µM (inactive)			1.2 µM (inactive)				1.24 µM (inactive)	
Cc1nc2c(sc(=S)n2-c2ccccc2)c(=O)[nH]1	> 100 µM (inactive)						> 100 µM (inactive)	> 100 µM (inactive)		> 100 µM (inactive)									> 100 µM (inactive)	> 100 µM (inactive)
COc1ccccc1C1C(Cl)C(=O)N1n1cnc2ccccc2c1=O (stereo unspecified)	> 100 µM (inactive)				> 100 µM (inactive)		> 100 µM (inactive)	> 100 µM (inactive)		> 100 µM (inactive)	> 100 µM (inactive)	> 100 µM (inactive)	> 100 µM (inactive)	> 100 µM (inactive)	> 100 µM (inactive)	> 100 µM (inactive)	> 100 µM (inactive)	> 100 µM (inactive)	> 100 µM (inactive)	> 100 µM (inactive)
Clc1ccc(C(SCc2ccccc2)SCc2ccccc2)cc1	> 10 µM (inactive)	> 10 µM (inactive)	> 10 µM (inactive)	> 10 µM (inactive)	> 10 µM (inactive)	> 10 µM (inactive)	> 10 µM (inactive)	> 10 µM (inactive)	> 10 µM (inactive)	> 10 µM (inactive)	> 10 µM (inactive)	> 10 µM (inactive)			> 10 µM (inactive)				> 10 µM (inactive)	
